We go through six compounds from US20260097036A1 (Kadmon Corporation, LLC, priority 2022, published 2026).

The nature of data set [1]: Part 2 relative bioavailability and food effect, plasma PK. It is filed as in vivo, human. As to conditions: for Tlag / Tmax / AUC (0-24) / AUC (0-last) / Cmax / Lambda-z / T1/2 / median Tmax / AUC % extrap / half-life / AUC(0-inf) / AUC(0-t): plasma; for peak (Cmax) and total exposure (AUC), liquid formulation vs tablet: both in the fed state, GMR comparison; for food effect on exposure, fed vs fasted: oral liquid formulation. As for the experimental part:
Subjects underwent preliminary screening procedures to determine their eligibility for Part 2 of the study at the screening visit (Day −28 to Day −2 of Part 2). Subjects who took part in Part 1 of the study were permitted to take part in Part 2.
Three different regimens (G, H, and I), were used over the three periods. In Regimen G, belumosudil was administered in Tablet form (reference); and in Regimens H and I, belumosudil was administered in the form of Oral Liquid Formulation.
In Period 1, Day 1: subjects were randomized prior to administration of the first dose of IMP to 1 of 6 treatment sequences (GHI, HIG, IGH, IHG, GIH and HGI) with 3 subjects assigned to each treatment sequence. On Day 1 of each study period (periods 1, 2 and 3), subjects received the regimens in Table 36:
Regimen H was administered to subjects as a flavorless low sucralose liquid formulation in a fasted state, and Regimens G and I were administered to subjects in a fed state. Regimen G was administered with a total of 240 mL of water. For Regimens H and I, immediately after IMP administration, subjects consumed water to a total volume of 240 mL (including the dosing volume).
Subjects received a single dose of IMP in the morning of Day 1 following an overnight fast of a minimum of 10 h (Regimen H, fasted state) or following a standard breakfast (Regimens G and I, fed state). Blood samples were collected at regular intervals for PK analysis. Following administration of Regimen H, subjects completed a written taste/palatability questionnaire individually and privately.
Subjects were resident in the clinical unit for 10 consecutive nights that covered all 3 treatment periods. All subjects remained on site until 72 h post-final dose for safety and PK assessments. There was a minimum washout of 3 days between each IMP administration. To ensure the ongoing wellbeing of the subjects, a follow-up phone call took place 3 to 7 days post-final dose. If a subject reported any AEs after discharge which represented a cause for concern, they were required to attend the clinical unit for a follow-up assessment. This would have been an unscheduled visit.

The conditions of data set [2]: cited from earlier work.
Data set [3] is described as follows: particle size distribution, Sympatec Helos wet dispersion. It is filed as physicochemical. The conditions noted are these: 40 mg/mL in water, R3 and R5 lens. As to the method: Samples were assessed using the Sympatec Helos Particle Size Analyzer using the generic method for wet dispersions as outlined below: • R5 Lens and R3 Lens • Sample added until 10-15% Copt achieved • Method run producing 3 replicates (sample stirred and sonicated throughout measurement run)
Samples were assessed using the Sympatec Helos Particle Size Analyzer, with sample added until 10-15% Copt was achieved. Two different lens assemblies were used giving the following ranges for particle size assessment, R3 Lens (0.5-175 μm) and the R5 Lens (4.8-875 μm). Three replicates were performed as part of the measurement run, with the sample stirred and sonicated as part of the method.

Where [4] appears, read: Regimen G: 200 mg Tablet, Fed, single oral dose, healthy male volunteers, median (range).
Where [5] appears, read: Regimen G: 200 mg Tablet, Fed, single oral dose, geometric mean (CV%).
Setting [6] is: Regimen G: 200 mg Tablet, Fed, single oral dose, geometric mean (CV%), individual values where n <= 2.
Where [7] appears, read: Regimen H: 200 mg Liquid Formulation, Fasted, single oral dose, healthy male volunteers, median (range).
Where [8] appears, read: Regimen H: 200 mg Liquid Formulation, Fasted, single oral dose, geometric mean (CV%).
Where [9] appears, read: Regimen H: 200 mg Liquid Formulation, Fasted, single oral dose, geometric mean (CV%), individual values where n <= 2.
Where [10] appears, read: Regimen I: 200 mg Liquid Formulation, Fed, single oral dose, healthy male volunteers, median (range).
[11] abbreviates: Regimen I: 200 mg Liquid Formulation, Fed, single oral dose, geometric mean (CV%).
Setting [12] is: Regimen I: 200 mg Liquid Formulation, Fed, single oral dose, geometric mean (CV%), individual values where n <= 2.

The structures appear in SMILES notation. Where “and” joins values, the source holds several entries; their conditions need not be identical. Equal entries are not always repeated. Where two headings read alike, the source gives them in different places.

On to `NC(=O)COc1cccc(-c2nc(Nc3ccc4[nH]ncc4c3)c3ccccc3n2)c1` [KD025m1], for which the Tlag in data set [1] (setting [4]) was 1.00 h; in data set [1] (setting [7]), 0.00 (0.00-1.00) [n = 17] h; in data set [1] (setting [10]) it was 0.500 (0.00-1.00) [n = 17] h. For the same compound, the values for the Tmax in data set [1] (setting [4]), in data set [1] (setting [7]) and in data set [1] (setting [10]) were 2.00 h, 1.00 (0.500-1.50) [n = 17] h and 1.50 (0.500-3.00) [n = 17] h, respectively. Besides, the “AUC (0-24)” value in data set [1] (setting [5]) was 45.3 (63.9%) [n = 15] ng · h/mL; in data set [1] (setting [8]), 34.9 (104.8%) [n = 12] ng · h/mL; in data set [1] (setting [11]) it was 49.4 (83.1%) [n = 17] ng · h/mL. In addition, the “AUC (0-last)” value in data set [1] (setting [5]) was 42.7 (50.7%) [n = 15] ng · h/mL; in data set [1] (setting [8]), 30.3 (70.9%) [n = 12] ng · h/mL; in data set [1] (setting [11]) it was 37.9 (53.2%) [n = 17] ng · h/mL. For the same compound, the figures for the Cmax in data set [1] (setting [5]), in data set [1] (setting [8]) and in data set [1] (setting [11]) were 22.3 ng/mL, 19.0 (41.7%) [n = 17] ng/mL and 19.4 (27.6%) [n = 17] ng/mL, respectively. The Lambda-z is 0.24 h⁻¹ and 0.38 h⁻¹ in data set [1] (setting [6]); 0.26 h⁻¹ and 0.3 h⁻¹ in data set [1] (setting [9]); 0.326 [n = 1] l/h in data set [1] (setting [12]). The T1/2 in data set [1] (setting [6]) is 1.81 h and 2.88 h; in data set [1] (setting [9]), 2.28 h and 2.67 h; in data set [1] (setting [12]), 2.128 [n = 1] h. Further, the “peak (Cmax) and total exposure (AUC), liquid formulation vs tablet” value in data set [1] (listed as KD025 ml) was “largely similar to that of the tablet reference”. Moreover, in data set [1], the “food effect on exposure, fed vs fasted” value was “moderate increases in total exposure”. The “median Tmax” value in data set [1] (single oral 200 mg as liquid formulation (fed)) was 1.5 h; in data set [1] (single oral 200 mg as tablet reference, fed, listed as KD025 ml) it was 2.00 h and 2 h.
For `OC[C@H]1O[C@H](O[C@]2(CCl)O[C@H](CCl)[C@@H](O)[C@@H]2O)[C@H](O)[C@@H](O)[C@H]1Cl` [Sucralose], in data set [2] (set in 2000), the ADI entry is given as “An ADI of up to 15 mg/kg body weight was set in 2000. In”.
Turning to `O=C([O-])c1ccccc1.[Na+]` [Sodium Benzoate], in data set [2] (JECFA (1996)), the ADI is recorded as 2-5. The JECFA (1996) has set an ADI of up to 5 mg/kg body- mg/kg body-weight.
In the case of `CC(C)NC(=O)COc1cccc(-c2nc(Nc3ccc4[nH]ncc4c3)c3ccccc3n2)c1` [jet-milled belumosudil], the “PSD of wet dispersion in sterile water for irrigation” value in data set [3] is listed as “poor results with readings that were inconsistent between the measurement runs”.
With `O=C(O)COc1cccc(-c2nc(Nc3ccc4[nH]ncc4c3)c3ccccc3n2)c1` [KD025m2, 2-(3-(4-(1H-indazol-5-ylamino)quinazolin-2-yl)phenoxy) acetic acid], the Tlag in data set [1] (setting [4]) is 1.00 h; in data set [1] (setting [7]), 0.00 h; in data set [1] (setting [10]), 0.00 h. Further, the AUC % extrap was 5.607 (49.8%) [n = 8] in data set [1] (setting [5]), 4.453 (60.7%) [n = 10] in data set [1] (setting [8]) and 5.388 (43.1%) [n = 10] in data set [1] (setting [11]). In addition, the Lambda-z in data set [1] (setting [5]) was 0.281 (43.1%) [n = 8] 1/h; in data set [1] (setting [8]), 0.277 (87.4%) [n = 10] 1/h; in data set [1] (setting [11]), 0.273 (56.5%) [n = 10] 1/h. Also, the “peak (Cmax) and total exposure (AUC), liquid formulation vs tablet” value in data set [1] was “similar”. Moreover, the half-life in data set [1] (male, human, oral, 200 mg, tablet reference 200 mg, fed, read-out: geometric mean T1/2 (converted)) was 2.47 h; in data set [1] (male, human, po, 200 mg, Regimen G: 200 mg Tablet, Fed, single oral dose, geometric mean (CV%), individual values where n <= 2, read-out: T1/2 (converted)), 2.47 h; in data set [1] (male, human, po, 200 mg, Regimen H: 200 mg Liquid Formulation, Fasted, single oral dose, geometric mean (CV%), individual values where n <= 2, read-out: T1/2 (converted)), 2.51 h; in data set [1] (male, human, po, 200 mg, Regimen I: 200 mg Liquid Formulation, Fed, single oral dose, geometric mean (CV%), individual values where n <= 2, read-out: T1/2 (converted)), 2.54 h. In addition, the Tmax in data set [1] (male, human, po, 200 mg, Regimen G: 200 mg Tablet, Fed, single oral dose, healthy male volunteers, median (range), read-out: Tmax) was 3 h; in data set [1] (male, human, po, 200 mg, Regimen H: 200 mg Liquid Formulation, Fasted, single oral dose, healthy male volunteers, median (range), read-out: Tmax) it was 1.5 h; in data set [1] (male, human, po, 200 mg, Regimen I: 200 mg Liquid Formulation, Fed, single oral dose, healthy male volunteers, median (range), read-out: Tmax), 2 h; in data set [1] (male, human, po, 200 mg, single oral 200 mg as liquid formulation (fed), read-out: median Tmax) it was 2 h; in data set [1] (male, human, po, 200 mg, single oral 200 mg as tablet reference, fed, read-out: median Tmax) it was 3 h. Besides, the AUC(0-inf) in data set [1] (male, human, po, 200 mg, Regimen G: 200 mg Tablet, Fed, single oral dose, geometric mean (CV%)) turned out to be 1180 ng·h/mL; in data set [1] (male, human, po, 200 mg, Regimen H: 200 mg Liquid Formulation, Fasted, single oral dose, geometric mean (CV%)) it was 1030 ng·h/mL; in data set [1] (male, human, po, 200 mg, Regimen I: 200 mg Liquid Formulation, Fed, single oral dose, geometric mean (CV%)), 926 ng·h/mL. The AUC(0-t) is 1280 ng·h/mL in data set [1] (male, human, po, 200 mg, Regimen G: 200 mg Tablet, Fed, single oral dose, geometric mean (CV%), read-out: AUC (0-24)); 1200 ng·h/mL in data set [1] (male, human, po, 200 mg, Regimen G: 200 mg Tablet, Fed, single oral dose, geometric mean (CV%), read-out: AUC (0-last)); 1130 ng·h/mL in data set [1] (male, human, po, 200 mg, Regimen H: 200 mg Liquid Formulation, Fasted, single oral dose, geometric mean (CV%), read-out: AUC (0-24)); 1080 ng·h/mL in data set [1] (male, human, po, 200 mg, Regimen H: 200 mg Liquid Formulation, Fasted, single oral dose, geometric mean (CV%), read-out: AUC (0-last)); 1180 ng·h/mL in data set [1] (male, human, po, 200 mg, Regimen I: 200 mg Liquid Formulation, Fed, single oral dose, geometric mean (CV%), read-out: AUC (0-24)); 1120 ng·h/mL in data set [1] (male, human, po, 200 mg, Regimen I: 200 mg Liquid Formulation, Fed, single oral dose, geometric mean (CV%), read-out: AUC (0-last)). The Cmax in data set [1] (male, human, po, 200 mg, Regimen G: 200 mg Tablet, Fed, single oral dose, geometric mean (CV%), read-out: Cmax) came out at 406 ng/mL; in data set [1] (male, human, po, 200 mg, Regimen H: 200 mg Liquid Formulation, Fasted, single oral dose, geometric mean (CV%), read-out: Cmax), 372 ng/mL; in data set [1] (male, human, po, 200 mg, Regimen I: 200 mg Liquid Formulation, Fed, single oral dose, geometric mean (CV%), read-out: Cmax), 319 ng/mL. Moreover, the “food effect on exposure, fed vs fasted” value in data set [1] is given as “No notable changes”.
On to `CC(C)NC(=O)COc1cccc(-c2nc(Nc3ccc4[nH]ncc4c3)c3ccccc3n2)c1` [pin-milled API], for which the “PSD of wet dispersion in sterile water for irrigation” value in data set [3] was “reproducibility between replicates”.
